{
  "source": "patent US20090028816A1",
  "about": "“Treatment of depression, psychosis, and anxiety” (priority 2007, published 2009)",
  "assay": "Range-finding tolerability and efficacy studies in neurological models",
  "format": "in vivo",
  "details": "intraperitoneally at dose levels up to 15 mg/kg twice a day (bid) for multiple days",
  "description": "Ibudilast is obtained as a pure powder from Sigma (St. Louis, Mo.) or Haorui Pharma (Edison, N.J.) and prepared daily as a solution for intraperitoneal or oral administration. Previous range-finding tolerability and efficacy studies in neurological models indicate that ibudilast is well-tolerated intraperitoneally at dose levels up to 15 mg/kg twice a day (bid) for multiple days. An appropriate amount of ibudilast is dissolved in 100% […] (PEG) 400 (Sigma) and then diluted down to a final concentration of 35% PEG400 in sterile saline (0.9% for injection). Drug stability and concentration are validated by HPLC/MS/MS.",
  "data": [
    {"smiles": "CC(C)C(=O)c1c(C(C)C)nn2ccccc12", "note": "[Ibudilast, 3-isobutyryl-2-isopropylpyrazolo[1,5-a]pyridine]", "values": [
      {"measurement": "tolerability, intraperitoneal", "value": "well-tolerated"}
    ]}
  ]
}
